Results taken from patent US9476099B2 (TRUSTEES OF DARTMOUTH COLLEGE, priority 2012, dated 2016).
Where “and” joins values, the source holds several entries; their conditions need not be identical. Equal entries are not always repeated.

System: NT2/D1-R1 control and DNMT3B knockdown cells
Assay: Genome-wide expression analysis with PAM clusters, control and DNMT3B knockdown cells (Tables 8-14)
Conditions: sh-3B + aza; 10 nM decitabine, 3 days

## Nc1ncn([C@H]2C[C@H](O)[C@@H](CO)O2)c(=O)n1 [aza]
  ADAMTSL2 NM_014694 expression Mean: 202.775
  ADM NM_001124 expression Mean: 446.451
  AFMID NM_0010109 expression Mean: 172.091
  AHNAK NM_001620 expression Mean: 254.833
  ANAPC13 NM_015391 expression Mean: 377.446
  ANXA1 NM_000700 expression Mean: 394.045
  ANXA2 NM_0010028 expression Mean: 2283.3
  AW972815 expression Mean: 584.452
  BAG3 NM_004281 expression Mean: 816.89
  BCL11A NM_022893 expression Mean: 345.798
  BIRC5 NM_001168 expression Mean: 423.791
  BTG2 NM_006763 expression Mean: 242.194
  C9orf6 NM_017832 expression Mean: 227.753
  C10orf2 NM_021830 expression Mean: 399.327
  C10orf58 NM_032333 expression Mean: 578.039
  C16orf93 NM_0010149 expression Mean: 214.657
  CA2 NM_000067 expression Mean: 486.868
  CATSPER2 NM_172097 expression Mean: 970.22
  CAV1 NM_001753 expression Mean: 402.328
  CCND1 NM_053056 expression Mean: 1996.23
  CDKN1A NM_000389 expression Mean: 619.606
  CDX1 NM_001804 expression Mean: 237.199
  CEACAM1 NM_0010249 expression Mean: 156.04
  CIRH1A NM_032830 expression Mean: 1424.13
  CLCF1 NM_013246 expression Mean: 200.181
  CLDN10 NM_006984 expression Mean: 222.057
  CNN3 NM_001839 expression Mean: 732.909
  COL7A1 NM_000094 expression Mean: 746.239
  COL17A1 NM_000494 expression Mean: 230.283
  CRABP2 NM_001878 expression Mean: 1011.8
  CRIPT NM_014171 expression Mean: 325.647
  CTNNB1 NM_0010982 expression Mean: 258.366
  CUEDC1 NM_017949 expression Mean: 215.515
  CXCL14 NM_004887 expression Mean: 194.723
  CXXC1 NM_014593 expression Mean: 1121.15
  CXorf40A NM_178124 expression Mean: 203.34
  CYR61 NM_001554 expression Mean: 338.671
  DDX51 NM_175066 expression Mean: 1008.46
  DIMT1L NM_014473 expression Mean: 616.311
  DUSP5 NM_004419 expression Mean: 1159.02
  EBI3 NM_005755 expression Mean: 333.316
  EIF2C2 NM_012154 expression Mean: 367.506
  ELF3 NM_004433 expression Mean: 204.8
  ELF4 NM_001421 expression Mean: 365.338
  EMILIN2 NM_032048 expression Mean: 230.192
  EOMES NM_005442 expression Mean: 289.321
  FAM53C NM_016605 expression Mean: 1227.05
  FAM123B NM_152424 expression Mean: 759.762
  FLJ40504 NM_173624 expression Mean: 1376.6
  FOXO3 NM_201559 expression Mean: 274.369
  GAD1 NM_000817 expression Mean: 204.457
  GAD1 NM_013445 expression Mean: 246.924
  GALNAC4S-6 NM_015892 expression Mean: 540.521
  GEMIN4 NM_015721 expression Mean: 784.75
  GLIPR2 NM_022343 expression Mean: 227.407
  GNL3L NM_019067 expression Mean: 289.661
  GNL3 NM_206826 expression Mean: 1810.36
  GPATCH4 NM_182679 expression Mean: 927.016
  GPER NM_0010399 expression Mean: 176.693
  GPR56 NM_201524 expression Mean: 189.936
  GPR56 NM_201525 expression Mean: 205.229
  GPR177 NM_0010022 expression Mean: 158.032 and 231.861
  GPR177 NM_024911 expression Mean: 239.092
  GTF3C6 NM_138408 expression Mean: 454.993
  H2AFY NM_004893 expression Mean: 843.815
  HARS NM_002109 expression Mean: 1283.03
  HCLS1 NM_005335 expression Mean: 494.474
  HES2 NM_019089 expression Mean: 164.558
  HSPA1A NM_005346 expression Mean: 348.731
  HSPA8 NM_006597 expression Mean: 3799.27
  HSPA8 NM_153201 expression Mean: 4636.48
  HSPH1 NM_006644 expression Mean: 389.459
  ID3 NM_002167 expression Mean: 1623.89
  IER3 NM_003897 expression Mean: 406.859
  IL2RB NM_000878 expression Mean: 175.269
  ITPRIP NM_033397 expression Mean: 226.046
  JTV1 NM_006303 expression Mean: 1336.75
  KAT2A NM_021078 expression Mean: 704.033
  KIAA0101 NM_014736 expression Mean: 230.187
  KRT8 NM_002273 expression Mean: 2758.76
  LEFTY2 NM_003240 expression Mean: 2484.87
